Assay results from US7951921B2, “Multivalent carriers of bi-specific antibodies” (Immunomedics, Inc., priority 2003, dated 2011).
Blank lines part the entries; values can stand above or below the molecule they belong to. Primed or numbered codes have the meaning given here. DTPA′ = diethylenetriaminepentaacetic acid

Experiments:
[1] = not told; cited from earlier work
[2] = cited from earlier work
[3] = system: hMN-14IgG^(I253A)-(734scFv)2; assay: Complex formation of radiolabeled DTPA peptides with bsMAb, size exclusion HPLC; type: binding; conditions: for complexing of bsMAb with radiolabeled indium-DTPA chelates: radioiodinated bsMAb, size exclusion HPLC
Excerpt: The binding of In-DTPA peptides to the anti-In-DTPA antibody hMN-14IgG^(I253A)-(734scFv)2 was examined by size exclusion HPLC. The bsMAb was radioiodinated using chloramines-T (Greenwood and Hunter). Binding of the radioiodinated bsMAbs to CEA, WI2 (rat anti-MN-14 idiotypic antibody) and radiolabeled peptidyl DTPA chelate was examined on analytical size exclusion HPLC. Approximately 90% of the radioiodinated bsMAb bound to CEA upon treatment with 10-20× molar excess of CEA. The bsMAb complexed with radiolabeled indium-DTPA chelates (IMP-156 or IMP-192).
An IMP 192 kit was labeled with Tc-99m 20.9 mCi. Aliquots from the kit were diluted and mixed with hMN-14IgG^(I253A)-(734scFv)2 in the following molar ratios (peptide/Ab) 1:5, 1:1, and 20:1. The peptide/antibody mixtures, the peptide alone and the antibody alone were examined on a Bio-Sil SEC 250 300 mm×7.8 mm HPC column eluted at 1 mL/min with 0.2 M phosphate buffer pH 6.8.
A known standard of hMN-14IgG^(I253A)-(734scFv)2 eluted from the column at about 9.41 minutes (FIG. 3). A known standard of Tc-99m IMP 192 eluted from the column at about 14.85 minutes (FIG. 4).

c734 IgG [4] = assay: Affinity blocking studies on IMP 240-coated BIAcore chip (surface plasmon resonance); type: binding
Description: (§1) The binding of In-DTPA peptides to the anti-In-DTPA antibody hMN-14IgG^(I253A)-(734scFv)2 was examined by affinity blocking studies using the IMP 240 peptide, Ac-Lys(DPTA)-Cys-NH2, which comprises a single DPTA group and a single Cys residue that can be used to form disulfide bridges with a second molecule having a free sulfhydryl group.
(§2) The binding studies were performed on a chip coated with IMP 240 using the disulfide connection as recommended by BIAcore. The chip surface was regenerated after each assay with 100 μL 0.025 M In-DTPA in HBS-In-citrate buffer as described. The binding studies were done with picomoles of antibody therefore binding was very sensitive to the slightest trace of In-DTPA left after the displacement wash.
Studies were performed with c734-IgG to compare the In-DTPA peptide binding behavior of this IgG to the hMN-14IgG^(I253A)-(734scFv)2.

[5] = system: hMN-14IgG^(I253A)-(734scFv)2; assay: as above; type: binding
Description: as §1, §2

[6] = biological target: IMP 246 [Ac-Cys-Lys(DTPA)-Tyr-Lys(DTPA)-NH2]2; assay: size exclusion HPLC; In-111 IMP 246 mixed with bsAb at 1:10 (IMP 246:bsAb) mole ratio
[7] = biological target: IMP 246 [Ac-Cys-Lys(DTPA)-Tyr-Lys(DTPA)-NH2]2; assay: size exclusion HPLC; labeled IMP 246 mixed with hMN-14 IgG^(I253A)-(734scFv)2, 16 hr at 37° C. in mouse serum
[8] = biological target: CEA (carcinoembryonic antigen) (UniProt P06731); assay: analytical size exclusion HPLC of radioiodinated bsMAb mixed with 10-20x molar excess of CEA
Chain of UniProt P06731 (P06731 35-685 limits assumed): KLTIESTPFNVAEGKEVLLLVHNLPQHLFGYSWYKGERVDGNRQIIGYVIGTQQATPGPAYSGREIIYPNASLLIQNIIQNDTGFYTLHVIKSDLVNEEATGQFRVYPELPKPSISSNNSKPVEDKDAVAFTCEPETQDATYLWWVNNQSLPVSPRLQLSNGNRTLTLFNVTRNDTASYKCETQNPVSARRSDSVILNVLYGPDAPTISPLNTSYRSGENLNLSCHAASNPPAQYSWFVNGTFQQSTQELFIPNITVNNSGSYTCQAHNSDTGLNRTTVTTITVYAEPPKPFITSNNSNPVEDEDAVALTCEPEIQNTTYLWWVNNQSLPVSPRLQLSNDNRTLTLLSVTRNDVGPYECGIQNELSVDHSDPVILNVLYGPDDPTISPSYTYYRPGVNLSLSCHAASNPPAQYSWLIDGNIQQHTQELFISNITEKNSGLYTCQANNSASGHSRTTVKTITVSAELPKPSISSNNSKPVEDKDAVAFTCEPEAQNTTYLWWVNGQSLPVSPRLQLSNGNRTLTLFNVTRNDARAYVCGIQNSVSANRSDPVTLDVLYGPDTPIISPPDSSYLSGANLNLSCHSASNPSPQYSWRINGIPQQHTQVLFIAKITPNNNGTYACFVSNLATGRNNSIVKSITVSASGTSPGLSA

[9] = biological target: hMN-14IgG^(I253A)-(734scFv)2; assay: SPR blocking assay; peptide premixed with antibody, IMP 240 chip
c734 IgG [10] = assay: as above

Molecule: O=C(CI)Nc1ccc(C(=O)ON2C(=O)CC(S(=O)(=O)O)C2=O)cc1 (centres unmarked) [Sulfo-SIAB, sulfosuccinimidyl(4-iodoacetyl)aminobenzoate]
- Membrane Permeable [1]: No

Molecule: O=C(CCCCCNC(=O)C1CCC(CN2C(=O)C=CC2=O)CC1)ON1C(=O)CCC1=O (centres unmarked) [LC-SMCC, succiminidyl-4-(N-maleimidomethyl)cyclohexane-1-carboxy-(6-amido-caproate)]
- Membrane Permeable [1]: No

Molecule: Cl.NCCSSCCC(=O)O [AEDP]
- Membrane Permeable [1]: No

Molecule: O=C(CCCCCN1C(=O)C=CC1=O)ON1C(=O)CCC1=O [EMCS, N-[ε-maleimidocaproyloxy]succinimide ester]
- Membrane Permeable [1]: Yes

Molecule: CC(=O)SCCC(=O)ON1C(=O)CCC1=O [SATP]
- Membrane Permeable [1]: Yes

Molecule: O=C(CBr)NCCC(=O)ON1C(=O)CCC1=O [SBAP]
- Membrane Permeable [1]: Yes

Molecule: O=C(CCSSc1ccccn1)NCCCCCC(=O)ON1C(=O)CCC1=O [LC-SPDP, N-succinimidyl 6-[3′-(2-pyridyldithio)propionamido]hexanoate]
- Water Soluble [2]: No

Molecule: O=C(CCCN1C(=O)C=CC1=O)ON1C(=O)CC(S(=O)(=O)O)C1=O (centres unmarked) [Sulfo-GMBS, N-[γ-Maleimidobutyryloxy] sulfosuccinimide ester]
- Membrane Permeable [1]: No

Molecule: O=C(CCCN1C(=O)C=CC1=O)ON1C(=O)CCC1=O [GMBS, N-[γ-Maleimidobutyryloxy] succinimide ester]
- Membrane Permeable [1]: Yes

Molecule: Ac-Phe-Lys(DTPA)-Tyr-Lys(DTPA)-NH2 (Ac-FK(DTPA′)YK(DTPA′)-NH2) [IMP 156]
- complexing of bsMAb with radiolabeled indium-DTPA chelates [3]: complexed
- equivalents of peptide needed to block binding to the chip (c734 IgG [4]): two or more equivalents
- affinity of antibody for In-IMP 156 relative to a single In-DTPA for a c734 IgG binding arm [5]: far higher
- equivalents of peptide that block binding to the chip [5]: one equivalent
- blocking of antibody binding to the IMP 240 chip ([5]; peptide mixed with antibody in a 1:1 ratio): completely blocked

Molecule: O=C(O)CCN1C(=O)C=CC1=O [BMPA]
- Membrane Permeable [1]: No

Molecule: O=C(ON1C(=O)CCC1=O)c1cccc(N2C(=O)C=CC2=O)c1 [MBS, m-maleimidobenzoyl-N-hydoxysuccinimide ester]
- Membrane Permeable [1]: Yes

Molecule: O=C(ON1C(=O)CC(S(=O)(=O)O)C1=O)c1cccc(N2C(=O)C=CC2=O)c1 (centres unmarked) [Sulfo-MBS, m-maleimidobenzoyl-N-hydoxysulfosuccinimide ester]
- Membrane Permeable [1]: No

Molecule: Ac-Lys(DTPA)-Tyr-Lys(DTPA)-Lys(TSCG-Cys)-NH2 [IMP 192]
- peptide/antibody complexes formed (HPLC traces) ([3]; Tc-99m IMP 192 mixed with antibody, molar ratios 1:5, 1:1, 20:1): essentially only one peptide/antibody complex is formed
- complexing of bsMAb with radiolabeled indium-DTPA chelates [3]: complexed

Molecule: O=C(CI)Nc1ccc(C(=O)ON2C(=O)CCC2=O)cc1 [SIAB, N-succinimidyl(4-iodoacetyl)aminobenzoate]
- Membrane Permeable [1]: Yes

Molecule: Ac-Phe-Gln-Tyr-Lys(DTPA)-NH2 (Ac-FQYK(DTPA′)-NH2) [IMP 233]
- blocking of antibody binding to the IMP 240 chip (c734 IgG [4]; 4:1 peptide/c734 IgG): did not completely block
- blocking of antibody binding to the IMP 240 chip ([5]; four equivalents of peptide premixed with the antibody): not completely blocked

Molecule: O=C(CCSSc1ccccn1)ON1C(=O)CCC1=O [SPDP, N-succinimidyl 3-(2-pyridyldithio)propionate]
- Membrane Permeable [1]: Yes

Molecule: CC(SSc1ccccn1)c1ccc(C(=O)ON2C(=O)CCC2=O)cc1 (centres unmarked) [SMPT, 4-succinimidyloxycarbonyl-methyl-(2-pyridyldithio)-toluene]
- Water Soluble [2]: No

Molecule: O=C(CCSSc1ccccn1)NCCCCCC(=O)ON1C(=O)CC(S(=O)(=O)O)C1=O (centres unmarked) [Sulfo-LC-SPDP, sulfosuccinimidyl 6-[3′-(2-pyridyldithio)-propionamido] hexanoate]
- Water Soluble [2]: Yes

Molecule: O=C(CCCc1ccc(N2C(=O)C=CC2=O)cc1)ON1C(=O)CC(S(=O)(=O)O)C1=O (centres unmarked) [Sulfo-SMPB, sulfosuccinimidyl 4-[p-maleimidophenyl]butyrate]
- Water Soluble [2]: Yes

Molecule: O=C(ON1C(=O)CCC1=O)C1CCC(CN2C(=O)C=CC2=O)CC1 (centres unmarked) [SMCC, succinimidyl 4-(N-maleimidomethyl)cyclohexane-1-carboxylate]
- Membrane Permeable [1]: Yes

Molecule: O=C(CCCCCN1C(=O)C=CC1=O)ON1C(=O)CC(S(=O)(=O)O)C1=O (centres unmarked) [Sulfo-EMCS, N-[ε-maleimidocaproyloxy]sulfosuccinimide ester]
- Membrane Permeable [1]: No

Molecule: O=C(ON1C(=O)CC(S(=O)(=O)O)C1=O)C1CCC(CN2C(=O)C=CC2=O)CC1 (centres unmarked) [Sulfo-SMCC, sulfosuccinimidyl 4-(N-maleimidomethyl)cyclohexane-1-carboxylate]
- Membrane Permeable [1]: No

Molecule: CC(SSc1ccccn1)c1ccc(C(=O)NCCCCCC(=O)ON2C(=O)CC(S(=O)(=O)O)C2=O)cc1 (centres unmarked) [Sulfo-LC-SMPT, sulfosuccinimidyl 6-[a-methyl-a-(2-pyridyl-dithio)toluamido]hexanoate]
- Water Soluble [2]: Yes

- percent of In-111 label in the complex peak [6]: 83%
Molecule: hMN-14IgG-(734scFv)2 (bispecific antibody)

Molecule: CCN=C=NCCCN(C)C [EDC, 1-ethyl-3-(3-dimethylaminopropyl)-carbodiimide]
- Water Soluble [2]: Yes

Molecule: O=C(O)CCCCCN1C(=O)C=CC1=O [EMCA]
- Membrane Permeable [1]: No

Molecule: O=C(CCCCCCCCCCN1C(=O)C=CC1=O)ON1C(=O)CC(S(=O)(=O)O)C1=O.[Na] (centres unmarked) [Sulfo-KMUS]
- Membrane Permeable [1]: No

- percent of HPLC area in the complex peak after 16 hr in mouse serum [7]: > 90%
- percent of bsMAb bound [8]: 90%
- percent of In-111 label in the complex peak [6]: 90%
Molecule: hMN-14IgG^(I253A)-(734scFv)2 (bispecific antibody)

Molecule: C=CS(=O)(=O)c1ccc(C(=O)ON2C(=O)CCC2=O)cc1 [SVSB]
- Membrane Permeable [1]: Yes

Molecule: O=C(O)CCCCCCCCCCN1C(=O)C=CC1=O [KMUA]
- Membrane Permeable [1]: No

- equivalents of peptide needed to block binding to the IMP 240 chip [9]: 1 equivalents
- equivalents of peptide needed to block binding to the IMP 240 chip (c734 IgG [10]): 2 equivalents
Molecule: Ac-FK(DTPA′)YK(DTPA′)-NH2 (also: DTPA loaded with indium) [IMP 156 Ac-Phe-Lys(DTPA)-Tyr-Lys(DTPA)-NH2]
